Test results: patent US8933230B2, “Phosphorus-containing group-substituted quinoline, its preparation process, medical composition containing the compounds and application” (priority 2011, dated 2015)

Key:
SRPK3 = biological target: T1, SRPK3 (Homo sapiens, UniProt Q9UPE1); experiment: KinomeScan kinase panel; type: binding
T1 construct: purchased DiscoveRx Corporation (KinomeScan)
Outline: (§1)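 Read-out is inhibition at one dose. Compound concentration was 1000 nM, run through the 442-kinase KinomeScan platform.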

EPHA6 = biological target: T2, EPHA6 (Homo sapiens, UniProt Q9UF33); experiment: KinomeScan kinase panel; type: binding
T2 construct: purchased DiscoveRx Corporation (KinomeScan)
T2 sequence (Q9UF33 23-1036): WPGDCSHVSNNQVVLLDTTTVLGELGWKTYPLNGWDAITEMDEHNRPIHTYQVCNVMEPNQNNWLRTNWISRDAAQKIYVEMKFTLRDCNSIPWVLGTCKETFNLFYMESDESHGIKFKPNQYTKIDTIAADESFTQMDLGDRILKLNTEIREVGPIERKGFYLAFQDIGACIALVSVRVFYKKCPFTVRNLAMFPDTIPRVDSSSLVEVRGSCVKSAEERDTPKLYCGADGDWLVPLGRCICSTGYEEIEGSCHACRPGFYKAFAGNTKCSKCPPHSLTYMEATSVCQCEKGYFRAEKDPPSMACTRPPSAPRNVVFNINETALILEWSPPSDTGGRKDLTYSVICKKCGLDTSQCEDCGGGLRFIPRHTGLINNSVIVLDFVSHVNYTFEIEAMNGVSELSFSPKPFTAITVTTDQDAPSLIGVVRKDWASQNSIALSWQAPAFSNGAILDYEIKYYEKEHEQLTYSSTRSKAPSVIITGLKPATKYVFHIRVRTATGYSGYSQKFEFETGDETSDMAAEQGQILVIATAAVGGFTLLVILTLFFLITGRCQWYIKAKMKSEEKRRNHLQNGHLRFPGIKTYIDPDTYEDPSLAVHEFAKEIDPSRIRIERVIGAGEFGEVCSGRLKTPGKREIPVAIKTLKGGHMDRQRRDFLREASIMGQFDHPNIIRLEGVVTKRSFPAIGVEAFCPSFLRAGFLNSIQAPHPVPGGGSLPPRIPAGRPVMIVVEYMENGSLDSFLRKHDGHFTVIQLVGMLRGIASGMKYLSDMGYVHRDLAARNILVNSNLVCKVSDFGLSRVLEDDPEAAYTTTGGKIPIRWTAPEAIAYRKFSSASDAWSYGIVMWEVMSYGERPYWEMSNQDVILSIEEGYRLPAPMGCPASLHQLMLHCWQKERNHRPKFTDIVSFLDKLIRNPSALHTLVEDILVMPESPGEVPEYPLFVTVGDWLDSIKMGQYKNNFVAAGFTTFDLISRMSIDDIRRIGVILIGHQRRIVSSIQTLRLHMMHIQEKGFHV
Outline: as §1

TAOK2 = biological target: T3, TAOK2 (Homo sapiens, UniProt Q9UL54); experiment: KinomeScan kinase panel; type: binding
T3 construct: purchased DiscoveRx Corporation (KinomeScan)
T3 sequence (Q9UL54 whole entry): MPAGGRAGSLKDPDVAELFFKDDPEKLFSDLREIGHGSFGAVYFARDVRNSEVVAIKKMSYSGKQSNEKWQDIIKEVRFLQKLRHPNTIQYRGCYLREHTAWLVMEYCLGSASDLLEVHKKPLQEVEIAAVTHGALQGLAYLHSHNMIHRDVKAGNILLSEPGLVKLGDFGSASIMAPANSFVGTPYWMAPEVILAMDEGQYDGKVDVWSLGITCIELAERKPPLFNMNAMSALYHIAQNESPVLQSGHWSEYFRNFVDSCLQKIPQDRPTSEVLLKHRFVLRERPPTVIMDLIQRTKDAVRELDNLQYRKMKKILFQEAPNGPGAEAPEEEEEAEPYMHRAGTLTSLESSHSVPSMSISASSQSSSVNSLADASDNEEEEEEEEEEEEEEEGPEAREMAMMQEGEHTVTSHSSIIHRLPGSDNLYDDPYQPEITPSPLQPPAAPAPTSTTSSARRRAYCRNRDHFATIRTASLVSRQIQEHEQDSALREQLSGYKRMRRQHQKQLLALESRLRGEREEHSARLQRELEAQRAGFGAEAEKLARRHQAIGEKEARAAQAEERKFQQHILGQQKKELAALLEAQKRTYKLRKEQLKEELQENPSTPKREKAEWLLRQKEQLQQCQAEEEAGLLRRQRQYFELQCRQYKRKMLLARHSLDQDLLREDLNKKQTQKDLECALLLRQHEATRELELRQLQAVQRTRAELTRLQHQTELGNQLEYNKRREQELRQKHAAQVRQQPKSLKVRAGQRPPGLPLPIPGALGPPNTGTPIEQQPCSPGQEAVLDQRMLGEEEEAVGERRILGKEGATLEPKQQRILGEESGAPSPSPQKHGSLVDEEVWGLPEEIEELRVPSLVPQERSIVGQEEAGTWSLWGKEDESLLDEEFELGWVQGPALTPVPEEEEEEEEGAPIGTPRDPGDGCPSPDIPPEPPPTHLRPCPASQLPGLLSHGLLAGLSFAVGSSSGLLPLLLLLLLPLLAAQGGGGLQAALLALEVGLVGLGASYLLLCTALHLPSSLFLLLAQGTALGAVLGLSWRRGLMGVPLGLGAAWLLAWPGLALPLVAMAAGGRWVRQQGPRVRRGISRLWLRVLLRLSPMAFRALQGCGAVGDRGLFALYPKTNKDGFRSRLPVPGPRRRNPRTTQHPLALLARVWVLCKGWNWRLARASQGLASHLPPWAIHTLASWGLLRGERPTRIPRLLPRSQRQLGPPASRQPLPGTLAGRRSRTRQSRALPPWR
Outline: as §1

MAP3K2 = biological target: T4, MAP3K2 (Homo sapiens, UniProt Q9Y2U5); experiment: KinomeScan kinase panel; type: binding
T4 construct: purchased DiscoveRx Corporation (KinomeScan)
Outline: as §1

IGF1R = biological target: T5, IGF1R (Homo sapiens, UniProt P08069); experiment: KinomeScan kinase panel; type: binding
T5 construct: purchased DiscoveRx Corporation (KinomeScan)
T5 sequence (P08069 31-1367): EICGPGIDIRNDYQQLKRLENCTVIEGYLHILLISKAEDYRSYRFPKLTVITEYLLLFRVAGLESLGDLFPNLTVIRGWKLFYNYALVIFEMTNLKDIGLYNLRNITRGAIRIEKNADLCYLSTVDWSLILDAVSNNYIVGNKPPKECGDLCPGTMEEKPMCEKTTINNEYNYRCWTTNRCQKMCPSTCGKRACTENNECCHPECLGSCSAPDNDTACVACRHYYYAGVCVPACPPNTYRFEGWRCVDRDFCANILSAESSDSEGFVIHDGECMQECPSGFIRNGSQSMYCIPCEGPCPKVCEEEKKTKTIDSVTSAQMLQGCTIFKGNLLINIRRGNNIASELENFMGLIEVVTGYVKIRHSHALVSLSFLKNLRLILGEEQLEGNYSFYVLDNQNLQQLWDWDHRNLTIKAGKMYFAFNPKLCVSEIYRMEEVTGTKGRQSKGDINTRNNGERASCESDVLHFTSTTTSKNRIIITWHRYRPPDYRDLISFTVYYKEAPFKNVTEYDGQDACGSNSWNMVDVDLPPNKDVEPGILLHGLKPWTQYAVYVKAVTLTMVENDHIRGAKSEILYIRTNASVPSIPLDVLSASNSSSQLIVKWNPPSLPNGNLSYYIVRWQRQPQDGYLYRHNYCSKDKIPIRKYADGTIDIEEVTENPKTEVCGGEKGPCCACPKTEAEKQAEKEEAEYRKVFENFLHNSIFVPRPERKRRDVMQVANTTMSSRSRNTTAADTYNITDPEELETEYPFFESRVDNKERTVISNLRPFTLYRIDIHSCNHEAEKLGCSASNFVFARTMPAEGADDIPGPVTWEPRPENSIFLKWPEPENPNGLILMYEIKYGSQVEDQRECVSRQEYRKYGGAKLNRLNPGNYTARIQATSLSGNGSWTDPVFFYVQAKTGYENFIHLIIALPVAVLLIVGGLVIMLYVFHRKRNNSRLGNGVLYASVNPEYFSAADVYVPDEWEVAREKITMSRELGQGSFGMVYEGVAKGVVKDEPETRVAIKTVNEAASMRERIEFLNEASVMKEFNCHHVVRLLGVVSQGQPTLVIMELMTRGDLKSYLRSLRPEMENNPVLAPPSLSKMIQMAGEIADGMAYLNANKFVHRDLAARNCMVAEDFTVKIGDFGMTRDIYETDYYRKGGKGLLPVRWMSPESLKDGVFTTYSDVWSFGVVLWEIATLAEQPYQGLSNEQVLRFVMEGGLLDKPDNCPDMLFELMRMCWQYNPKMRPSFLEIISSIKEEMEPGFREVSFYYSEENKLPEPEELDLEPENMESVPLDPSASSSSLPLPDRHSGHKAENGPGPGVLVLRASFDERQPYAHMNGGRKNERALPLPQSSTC
Outline: as §1

PKNB (M. tuberculosis) = biological target: T6, PKNB (M. tuberculosis) (Mycobacterium tuberculosis, UniProt P9WI81); experiment: KinomeScan kinase panel; type: binding
T6 construct: purchased DiscoveRx Corporation (KinomeScan)

c-KIT = biological target: T7, c-KIT (Homo sapiens, UniProt P10721); experiment: c-KIT kinase phosphorylation in M07e cells (sandwich ELISA); type: cell-based; settings: SCF 100 ng/mL 3 min, mean value of two testing results, read-out: IC50 values in the cell, c-KIT
T7 construct: cell line M07e having endogenous high expression wild type c-KIT; endogenous in cells; host or cells: M07e
T7 sequence (P10721 26-976): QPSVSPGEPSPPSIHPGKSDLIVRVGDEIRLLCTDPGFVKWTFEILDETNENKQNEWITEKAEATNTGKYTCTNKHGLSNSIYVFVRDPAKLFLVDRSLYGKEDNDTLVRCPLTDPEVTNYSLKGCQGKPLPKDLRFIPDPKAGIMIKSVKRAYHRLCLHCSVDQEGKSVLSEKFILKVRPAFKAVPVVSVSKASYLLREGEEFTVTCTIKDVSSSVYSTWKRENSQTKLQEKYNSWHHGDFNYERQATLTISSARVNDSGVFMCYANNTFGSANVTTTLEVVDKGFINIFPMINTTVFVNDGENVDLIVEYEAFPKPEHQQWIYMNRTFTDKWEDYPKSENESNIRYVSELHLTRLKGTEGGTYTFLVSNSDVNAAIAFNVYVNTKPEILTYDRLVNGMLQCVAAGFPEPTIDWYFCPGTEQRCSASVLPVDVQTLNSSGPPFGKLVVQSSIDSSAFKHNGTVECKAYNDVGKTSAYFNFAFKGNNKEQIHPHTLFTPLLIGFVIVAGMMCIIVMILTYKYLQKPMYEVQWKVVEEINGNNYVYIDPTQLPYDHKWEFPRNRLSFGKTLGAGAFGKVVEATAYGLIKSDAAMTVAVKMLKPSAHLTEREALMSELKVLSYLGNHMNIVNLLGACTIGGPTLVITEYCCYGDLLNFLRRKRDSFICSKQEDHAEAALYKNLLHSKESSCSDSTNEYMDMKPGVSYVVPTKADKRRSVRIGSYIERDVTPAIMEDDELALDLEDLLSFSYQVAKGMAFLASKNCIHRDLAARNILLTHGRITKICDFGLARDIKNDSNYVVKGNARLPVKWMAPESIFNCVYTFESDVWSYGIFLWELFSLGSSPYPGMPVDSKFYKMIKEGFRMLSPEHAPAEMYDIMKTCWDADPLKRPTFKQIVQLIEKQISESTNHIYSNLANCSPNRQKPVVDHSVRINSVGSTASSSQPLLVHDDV
Experimental: Inhibitory activity on the kinases in tumor cells: In this example, the compound prepared in Example 10, N1-[4-[[7-[[1-(diethoxyphosphorylmethyl)-4-piperidinyl]methoxyl]-6-methoxyl-4-quinolyl]oxyl]-3-fluorophenyl]-N1′-(4-fluorophenyl)cyclopropane-1,1-dicarboxamide is tested in tumor cells by ProQinase GmbH corporation (Breisacher Str. 117, D-79106 Freiburg, Germany. www.proqinase.com) for the inhibitory activity on the following kinases: c-KIT, c-MET, VEGFR2 and PDGFR-β. The test includes the following steps:
Firstly, the compound according to present invention is dissolved in dimethyl sulfoxide (DMSO) to prepare a 10 mM stock solution, which is diluted serially according to the concentration range shown in Table 6:
c-KIT kinase: in the test experiment of KIT kinase phosphorylation in the cells, human acute megakaryocytic leukemia cell line M07e having endogenous high expression wild type c-KIT is used. When these cells are stimulated with human stem cell factor (SCF), the tyrosine of KIT receptor kinases is self-phosphorylated. M07e cells are inoculated in RPMI containing 20% fetal calf serum (FCS) and 10 ng/ml GM-CSF in a multi-well cell culture dish. The compound of the invention is added to the cells after overnight starvation of serum and growth factor, then the cells are cultured in a medium without serum. […]

T1 sequence (Q9UPE1 whole entry): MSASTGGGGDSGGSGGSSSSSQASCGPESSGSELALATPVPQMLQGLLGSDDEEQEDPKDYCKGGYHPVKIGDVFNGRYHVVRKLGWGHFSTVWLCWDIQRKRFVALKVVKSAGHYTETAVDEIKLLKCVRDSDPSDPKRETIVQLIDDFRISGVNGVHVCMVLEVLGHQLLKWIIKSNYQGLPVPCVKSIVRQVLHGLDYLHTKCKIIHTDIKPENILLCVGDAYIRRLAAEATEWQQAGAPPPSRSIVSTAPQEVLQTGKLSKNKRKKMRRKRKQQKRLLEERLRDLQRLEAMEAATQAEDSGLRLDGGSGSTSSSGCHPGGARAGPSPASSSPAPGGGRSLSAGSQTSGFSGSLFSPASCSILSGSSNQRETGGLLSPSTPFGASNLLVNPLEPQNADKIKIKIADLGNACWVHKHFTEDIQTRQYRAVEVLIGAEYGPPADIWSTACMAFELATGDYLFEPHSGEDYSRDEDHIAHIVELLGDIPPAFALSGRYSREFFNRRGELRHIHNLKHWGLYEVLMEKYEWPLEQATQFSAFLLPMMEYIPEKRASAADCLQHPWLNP

CCOP(=O)(CN1CCC(COc2cc3nccc(Oc4ccc(NC(=O)C5(C(=O)Nc6ccc(F)cc6)CC5)cc4F)c3cc2OC)CC1)OCC [Example 10, N1-[4-[[7-[[1-(diethoxyphosphorylmethyl)-4-piperidinyl]methoxyl]-6-methoxyl-4-quinolyl]oxyl]-3-fluorophenyl]-N1′-(4-fluorophenyl)cyclopropane-1,1-dicarboxamide]
% Ctrl@1000 nM (SRPK3): 100 % Ctrl | % Ctrl@1000 nM (EPHA6): 4.8 % Ctrl | % Ctrl@1000 nM (TAOK2): 70 % Ctrl | % Ctrl@1000 nM (MAP3K2): 100 % Ctrl | % Ctrl@1000 nM (IGF1R): 94 % Ctrl | % Ctrl@1000 nM (PKNB (M. tuberculosis)): 96 % Ctrl | IC50 (c-KIT): 27 nM
